This is an account of results in ChEMBL document CHEMBL4325823 (Medchemcomm, 2018).

Bounds are passed on as bounds.

Assay [1] is described as follows: Inhibition of bacterial Class A beta-lactamase. Also on record: species or system Bacteria.
The nature of assay [2]: Inhibition of bacterial beta lactamase class C. Also on record: species or system Bacteria.
The subject of assay [3] is Klebsiella pneumoniae. The assay is described as follows: Inhibition of beta lactamase KPC in Klebsiella pneumoniae assessed as potentiation of meropenem-induced antibacterial activity by measuring fold reduction in meropenem MIC.
In assay [4] the test system is Klebsiella pneumoniae. The assay is described as follows: Inhibition of beta lactamase OXA in Klebsiella pneumoniae assessed as potentiation of meropenem-induced antibacterial activity by measuring fold reduction in meropenem MIC.
In assay [5] the test system is Klebsiella pneumoniae. The assay is described as follows: Inhibition of beta lactamase class C in Klebsiella pneumoniae assessed as potentiation of meropenem-induced antibacterial activity by measuring fold reduction in meropenem MIC.
The test system of assay [6] is Enterobacteriaceae. The assay is described as follows: Inhibition of ESBL in Enterobacteriaceae assessed as potentiation of cefepime-induced antibacterial activity by measuring cefepime MIC by broth microdilution method.
Assay [7] has as its system Enterobacteriaceae. The assay is described as follows: Inhibition of plasmid-encoded Ampc in Enterobacteriaceae assessed as potentiation of cefepime-induced antibacterial activity by measuring cefepime MIC at 1:1 ratio of test compound to cefepime by broth microdilution method. In general terms: In broth dilution the organism is exposed to a series of concentrations in liquid medium.

In assay [8] the target is Beta-lactamase OXA-23 (Acinetobacter baumannii) (UniProt Q9L4P2). The assay is described as follows: Inhibition of beta-lactamase OXA-23 in Acinetobacter baumannii ST2 assessed as potentiation of cefepime-induced antibacterial activity by measuring cefepime MIC at 8 ug/ml.
Sequence of Beta-lactamase OXA-23 (Acinetobacter baumannii) (Q9L4P2 whole entry): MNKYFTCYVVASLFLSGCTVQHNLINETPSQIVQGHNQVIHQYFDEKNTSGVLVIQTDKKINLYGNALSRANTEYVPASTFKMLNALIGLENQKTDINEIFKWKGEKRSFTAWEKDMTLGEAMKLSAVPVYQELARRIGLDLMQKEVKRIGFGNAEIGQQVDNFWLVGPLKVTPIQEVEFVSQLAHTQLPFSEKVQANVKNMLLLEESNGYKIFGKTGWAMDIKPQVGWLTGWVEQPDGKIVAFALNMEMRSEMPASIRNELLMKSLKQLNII
For assay [9], the system named is Enterobacteriaceae. The assay is described as follows: Inhibition of CTX-M-15 in Enterobacteriaceae assessed as potentiation of cefepime-induced antibacterial activity by measuring cefepime MIC at 1:1 ratio of test compound to cefepime by broth microdilution method.
Assay [10] relates to Enterobacteriaceae. The assay is described as follows: Inhibition of derepressed beta-lactamase AmpC mutant in Enterobacteriaceae assessed as potentiation of cefepime-induced antibacterial activity by measuring cefepime MIC at 1:1 ratio of test compound to cefepime by broth microdilution method.
For assay [11], the system named is Enterobacteriaceae. The assay is described as follows: Inhibition of beta lactamase in Enterobacteriaceae clinical isolate assessed as potentiation of cefepime-induced antibacterial activity by measuring cefepime MIC at 1:1 ratio of test compound to cefepime by microarray-based method.
Assay [12] deals with Pseudomonas aeruginosa. The assay is described as follows: Inhibition of beta lactamase in Pseudomonas aeruginosa assessed as potentiation of cefepime-induced antibacterial activity by measuring cefepime MIC at 1:1 ratio of test compound to cefepime by microarray based method.
Assay [13] concerns Klebsiella sp. The assay is described as follows: Inhibition of ESBL in Klebsiella sp. assessed as potentiation of cefepime-induced antibacterial activity by measuring fold reduction in cefepime MIC at 1:1 ratio of test compound to cefepime by […] method.
The subject of assay [14] is Enterobacteriaceae. The assay is described as follows: Inhibition of carbapenemase in Enterobacteriaceae clinical isolate assessed as potentiation of cefepime-induced antibacterial activity by measuring fold reduction in cefepime MIC at 1:1 ratio of test compound to cefepime by microarray-based method.
Assay [15] deals with Escherichia coli. The assay is described as follows: Inhibition of ESBL in Escherichia coli clinical isolate assessed as potentiation of cefepime-induced antibacterial activity by measuring fold reduction in cefepime MIC at 1:1 ratio of test compound to cefepime by […] method.
The subject of assay [16] is Enterobacteriaceae. The assay is described as follows: Inhibition of KPC in Enterobacteriaceae assessed as potentiation of cefepime-induced antibacterial activity by measuring cefepime MIC at 1:1 ratio of test compound to cefepime by broth microdilution method.
The target of assay [17] is Beta-lactamase OXA-23 (Acinetobacter baumannii) (UniProt Q9L4P2). The assay is described as follows: Inhibition of beta-lactamase OXA-23 in Acinetobacter baumannii ST2 assessed as potentiation of sulbactam-induced antibacterial activity by measuring sulbactam MIC at 8 ug/ml.
Assay [18] concerns Enterobacteriaceae. The assay is described as follows: Inhibition of SHV in Enterobacteriaceae assessed as potentiation of cefepime-induced antibacterial activity by measuring cefepime MIC at 1:1 ratio of test compound to cefepime by broth microdilution method.
Assay [19] concerns Acinetobacter sp. The assay is described as follows: Inhibition of beta lactamase in Acinetobacter sp. assessed as potentiation of cefepime-induced antibacterial activity by measuring cefepime MIC at 1:1 ratio of test compound to cefepime by microarray based method.
For assay [20], the system named is Enterobacteriaceae. The assay is described as follows: Inhibition of metallo-beta-lactamase in Enterobacteriaceae assessed as potentiation of cefepime-induced antibacterial activity by measuring cefepime MIC at 1:1 ratio of test compound to cefepime by broth microdilution method.
In assay [21] the test system is Enterobacteriaceae. The assay is described as follows: Inhibition of ESBL in Enterobacteriaceae assessed as potentiation of cefepime-induced antibacterial activity by measuring cefepime MIC at 1:1 ratio of test compound to cefepime by broth microdilution method.
The nature of assay [22]: Inhibition of bacterial VIM2 expressed in Escherichia coli BL21(DE3) using nitrocefin as substrate measured after 5 to 10 mins. Also on record: species or system Bacteria.
The nature of assay [23]: Inhibition of bacterial NDM1 expressed in Escherichia coli BL21(DE3) using nitrocefin as substrate measured after 5 to 10 mins. Also on record: species or system Bacteria.
Assay [24] in a line: Binding affinity to Zn2+ by isothermal calorimetric method. On the technique in general: ITC needs no label: the signal is the heat of the interaction.
The subject of assay [25] is Pseudomonas aeruginosa. The assay is described as follows: Inhibition of ESBL in Pseudomonas aeruginosa clinical isolate assessed as potentiation of imipenem-induced antibacterial activity by measuring imipenem MIC at 4 ug/ml.
In assay [26] the test system is Enterobacter sp. The assay is described as follows: Inhibition of ESBL in Enterobacter sp. clinical isolate assessed as potentiation of imipenem-induced antibacterial activity by measuring imipenem MIC at 4 ug/ml.
Assay [27] relates to Klebsiella pneumoniae. The assay is described as follows: Inhibition of ESBL in Klebsiella pneumoniae clinical isolate assessed as potentiation of imipenem-induced antibacterial activity by measuring imipenem MIC at 4 ug/ml.
Assay [28] concerns Klebsiella pneumoniae. The assay is described as follows: Inhibition of beta lactamase KPC in Klebsiella pneumoniae clinical isolate assessed as potentiation of imipenem-induced antibacterial activity by measuring imipenem MIC90 at 4 ug/ml (reference value: 16 ug/ml).
Assay [29] has as its system Pseudomonas aeruginosa. The assay is described as follows: Inhibition of beta lactamase KPC in imipenem-resistant Pseudomonas aeruginosa clinical isolate assessed as potentiation of imipenem-induced antibacterial activity by measuring imipenem MIC90 at 4 ug/ml (reference value: 8 ug/ml).
The subject of assay [30] is Pseudomonas aeruginosa. The assay is described as follows: Inhibition of beta lactamase KPC in imipenem-resistant Pseudomonas aeruginosa clinical isolate assessed as potentiation of imipenem-induced antibacterial activity by measuring imipenem MIC50 at 4 ug/ml (Rvb >16 ug/ml).
Assay [31] relates to Klebsiella pneumoniae. The assay is described as follows: Inhibition of beta lactamase KPC in Klebsiella pneumoniae clinical isolate assessed as potentiation of imipenem-induced antibacterial activity by measuring imipenem MIC50 at 4 ug/ml (Rvb >16 ug/ml).
Assay [32] has as its system Escherichia coli. The assay is described as follows: Inhibition of ESBL in Escherichia coli clinical isolate assessed as potentiation of imipenem-induced antibacterial activity by measuring imipenem MIC at 4 ug/ml.
The nature of assay [33]: Inhibition of bacterial NDM1. Also on record: species or system Bacteria.

As for `O=C(NOC1CCNC1)[C@@H]1CC2(CC2)[C@@H]2CN1C(=O)N2OS(=O)(=O)O` (stereo not given in full), the IC50 in assay [1] and in assay [2] was less than 19 nM each time.

On to `NC[C@H]1CC([C@@H]2CC[C@@H]3CN2C(=O)N3OS(=O)(=O)O)=NO1`, for which the fold change (FC) in assay [3], in assay [4] and in [5] was less than 1024 throughout.

Regarding `Cn1cc[n+](C[C@@]2(C)[C@H](C(=O)[O-])N3C(=O)C[C@H]3S2(=O)=O)n1`, in assay [6], the MIC50 came to 0.125 µg/mL and the MIC90 came out at 0.5 µg/mL.

For the compound `O=C(NNC(=O)[C@@H]1CC[C@@H]2CN1C(=O)N2OS(=O)(=O)O)[C@@H]1CCCNC1`, the MIC90 in [7] was less than 0.06 µg/mL; in assay [9] it was 1 µg/mL; in assay [10], 0.5 µg/mL; in assay [11] it was 0.12 µg/mL; in [12], 4 µg/mL; in [16], 1 µg/mL. For the same compound, the MIC90 in assay [18] came to 0.25 µg/mL; in [19], 32 µg/mL; in assay [20], 8 µg/mL; in assay [21] it was 1 µg/mL. The fold change (FC) stood at 4 in assay [8]; 16 in [13]; 16 in assay [14]; 16 in assay [15]; 8 in [17].

Take `NCCONC(=O)[C@@H]1CC2(CC2)[C@@H]2CN1C(=O)N2OS(=O)(=O)O`: the IC50 in [1] and in [2] was less than 19 nM in each case.

`N[C@@H](CN[C@@H](CN[C@@H](CC(=O)O)C(=O)O)C(=O)O)C(=O)O`: the half-maximal inhibitory concentration (IC50) (as a rule, the concentration that inhibits the measured activity by half) stood at 9600 nM in assay [22] and 4000 nM in assay [23]. Besides, the Kd (as a rule, a measure of binding affinity in units of concentration) in assay [24] is 200 nM.

In the case of `O=C(NC1CCNCC1)[C@@H]1CC[C@@H]2CN1C(=O)N2OS(=O)(=O)O`, the MIC50 is 2 µg/mL in assay [25]; 0.5 µg/mL in assay [26]; 0.25 µg/mL in assay [27]; 2 µg/mL in assay [30]; 1 µg/mL in [31]; 0.25 µg/mL in assay [32]. Further, the MIC90 in assay [25] worked out at 0.5 µg/mL; in [26], 0.25 µg/mL; in assay [27], 0.25 µg/mL; in assay [28] it was 0.25 µg/mL; in assay [29], 1 µg/mL; in [32], 0.25 µg/mL.

In assay [33], `CC(C)c1cccc2c(-c3ccc(Cn4cccn4)cc3)c(C(=O)O)[nH]c12` displayed an IC50 of 0.5 nM.
